According to ChEMBL document CHEMBL1148305, “5-substituted derivatives of 6-halogeno-3-((2-(S)-azetidinyl)methoxy)pyridine and 6-halogeno-3-((2-(S)-pyrrolidinyl)methoxy)pyridine with low picomolar affinity for alpha4beta2 nicotinic acetylcholine receptor and wide range of lipophilicity: potential probes for imaging with positron emission …” (J Med Chem, 2004):

Target: Neuronal acetylcholine receptor; alpha4/beta2 (Rattus norvegicus, UniProt P09483+P12390)
Experiment: Ability of compound to compete with 50 pM of 5-[125I]iodo-A-85,380 for receptor binding sites in rat brain membranes at room temperature
Format: cell membranes

| SMILES | Ki [pM] |
| --- | --- |
| Clc1ncc(OC[C@@H]2CCCN2)cc1-c1ccc(Br)nc1 | 19.5 |
| Brc1ncc(OC[C@@H]2CCN2)cc1-c1cccnc1 | 6.6 |
| Fc1cc(-c2cc(OC[C@@H]3CCN3)cnc2Cl)ccn1 | 4.8 |
| Clc1ncc(OC[C@@H]2CCCN2)cc1/C=C/c1ccnc(Br)c1 | 5.6 |
| Fc1ccnc[n+]1-c1cc(OC[C@@H]2CCN2)cnc1Cl | 8.8 |
| Fc1ccc(-c2cc(OC[C@@H]3CCN3)cnc2Cl)cn1 | 4.9 |
| Clc1ccc(OC[C@@H]2CCN2)cn1 | 34 |
| Fc1cc(/C=C/c2cc(OC[C@@H]3CCN3)cnc2Cl)ccn1 | 3.1 |
| Fc1ccc(-c2cc(OC[C@@H]3CCCN3)cnc2Cl)cn1 | 17.9 |
| Clc1ncc(OC[C@@H]2CCN2)cc1-c1cccnc1 | 8.1 |
| Fc1cc(/C=C/c2cc(OC[C@@H]3CCCN3)cnc2Cl)ccn1 | 9.4 |
| Clc1ncc(OC[C@@H]2CCN2)cc1-c1ccnc(Br)c1 | 3.3 |
| Fc1ncc(/C=C/c2cc(OC[C@@H]3CCN3)cnc2Cl)cc1Br | 7.7 |
| Clc1ncc(OC[C@@H]2CCN2)cc1/C=C/c1ccnc(Br)c1 | 5.2 |
| Ic1ncc(OC[C@@H]2CCN2)cc1-c1cccnc1 | 11.7 |
| Clc1ccc(-c2cc(OC[C@@H]3CCN3)cnc2Cl)cn1 | 4.5 |
| Clc1ncc(OC[C@@H]2CCN2)cc1/C=C/c1ccncc1 | 9 |
| Clc1ncc(OC[C@@H]2CCN2)cc1-c1ccc(Br)nc1 | 4.3 |
| Fc1ncc(-c2cc(OC[C@@H]3CCN3)cnc2Cl)cc1Br | 4 |
| Fc1ncc(OC[C@@H]2CCN2)cc1-c1cccnc1 | 66 |
